From ChEMBL document CHEMBL5537169, “Structure-Activity Relationships and Discovery of (S)-6-Isopropyl-2-methoxy-3-(3-methoxypropoxy)-10-oxo-5,10-dihydro-6H-pyrido[1,2-h][1,7]naphthyridine-9-carboxylic Acid (AB-452), a Novel Orally Available HBV RNA Destabilizer” (J Med Chem, 2024)
pEC50, pIC50: −log10 of the molar value. In brackets after ≈: the same amount, converted by molar mass.

How the values were obtained:
[1] = Drug accumulation in Beagle dog plasma assessed as fold change in drug uptake at 10 mg/kg,po measured at 0.083 to 24 hrs post administration by LC-MS/MS analysis; assay type: ADME, organism-based, Canis lupus familiaris; settings: in vivo, time 0.083-24 hrs
[2] = Half life in Beagle dog at 10 mg/kg,po measured at 0.083 to 24 hrs post administration by LC-MS/MS analysis; assay type: ADME, organism-based, Canis lupus familiaris; settings: in vivo, time 0.083-24 hrs
[3] = AUCinfinity in Beagle dog at 2 mg/kg,iv measured at 0.083 to 24 hrs post administration by LC-MS/MS analysis; assay type: ADME, organism-based, Canis lupus familiaris; settings: in vivo, time 0.083-24 hrs; for AUC(0-inf): Beagle
[4] = Cmax in CD-1 mouse at 10 mg/kg,po measured at 0.083 to 24 hrs post administration by LC-MS/MS analysis; assay type: ADME, organism-based; settings: in vivo, time 0.083-24 hrs
[5] = Protein binding in mouse plasma assessed as fraction unbound at 2 uM incubated for 6 hrs by equilibrium dialysis based LC-MS/MS analysis; assay type: ADME, cell-free
[6] = Oral bioavailability in Sprague-Dawley rat at 10 mg/kg measured at 0.083 to 24 hrs by LC-MS/MS analysis; assay type: ADME, organism-based; settings: in vivo, time 0.083-24 hrs; for bioavailability: Sprague-Dawley
[7] = AUCinfinity in Sprague-Dawley rat at 10 mg/kg,po measured at 0.083 to 24 hrs post administration by LC-MS/MS analysis; assay type: ADME, organism-based; settings: in vivo, time 0.083-24 hrs; for AUC(0-inf): Sprague-Dawley
[8] = Half life in CD-1 mouse at 10 mg/kg,po measured at 0.083 to 24 hrs post administration by LC-MS/MS analysis; assay type: ADME, organism-based; settings: in vivo, time 0.083-24 hrs
[9] = Kinetic solubility of compound in PBS at pH 7.4 incubated for 24 hrs by UPLC-UV analysis; assay type: physicochemical; settings: read-out: Kinetic_solubility
[10] = Protein binding in human plasma assessed as fraction unbound at 2 uM incubated for 6 hrs by equilibrium dialysis based LC-MS/MS analysis; assay type: ADME, cell-free
[11] = Oral bioavailability in CD-1 mouse at 10 mg/kg measured at 0.083 to 24 hrs by LC-MS/MS analysis; assay type: ADME, organism-based; settings: in vivo, time 0.083-24 hrs
[12] = Cmax in Beagle dog at 2 mg/kg,iv measured at 0.083 to 24 hrs post administration by LC-MS/MS analysis; assay type: ADME, organism-based, Canis lupus familiaris; settings: in vivo, time 0.083-24 hrs
[13] = Clearance in CD-1 mouse liver microsomes at 0.3 uM pre-incubated for 10 mins followed by NADPH addition incubated for 60 mins by LC-MS/MS analysis; assay type: ADME, Microsome; settings: time 70 min, read-out: CLH
Hepatitis B virus = assay: Antiviral activity against HBV infected in human HepG2.2.15 cells assessed as inhibition of HBsAg level incubated for 6 days by microplate-based chemiluminescence immunoassay; assay type: functional, organism-based; settings: HepG2 2.2.15, 144 h
Cytochrome P450 1A2 = target: T1, Cytochrome P450 1A2 (Homo sapiens, UniProt P05177); assay: Reversible inhibition of CYP1A2 in human liver microsomes using phenacetin as substrate pre-incubated for 30 mins followed by NADPH addition and measured after 10 mins by LC-MS/MS analysis; assay type: ADME, Microsome
T1 sequence (P05177 whole entry): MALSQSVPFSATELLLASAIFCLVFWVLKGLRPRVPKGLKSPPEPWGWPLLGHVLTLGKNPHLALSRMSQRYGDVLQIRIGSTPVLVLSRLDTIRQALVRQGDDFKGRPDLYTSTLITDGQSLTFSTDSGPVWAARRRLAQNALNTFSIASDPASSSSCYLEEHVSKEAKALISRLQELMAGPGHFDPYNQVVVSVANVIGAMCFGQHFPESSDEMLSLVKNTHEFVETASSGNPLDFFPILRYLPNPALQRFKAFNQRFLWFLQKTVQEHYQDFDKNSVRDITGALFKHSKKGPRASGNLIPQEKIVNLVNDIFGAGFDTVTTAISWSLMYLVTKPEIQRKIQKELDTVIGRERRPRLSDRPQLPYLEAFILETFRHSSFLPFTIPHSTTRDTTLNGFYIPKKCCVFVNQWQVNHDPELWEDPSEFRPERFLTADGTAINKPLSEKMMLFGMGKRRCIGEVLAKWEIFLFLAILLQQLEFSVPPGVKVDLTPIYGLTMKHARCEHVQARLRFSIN

[14] = Cardiotoxicity in Langendorff-perfused New Zealand White rabbit heart assessed as decrease in left ventricular pressure at 10 uM incubated for 45 mins by ECG analysis; assay type: toxicity, tissue-based, Oryctolagus cuniculus; set-up: scale not given: the % may be the effect or the level left; settings: 0.75 h
[15] = Apparent volume of distribution at steady state in Beagle dog at 2 mg/kg,iv measured at 0.083 to 24 hrs post administration by LC-MS/MS analysis; assay type: ADME, organism-based, Canis lupus familiaris; settings: in vivo, time 0.083-24 hrs; for Vd: Beagle, read-out: Vdss(app)
Cytochrome P450 2B6 = target: T2, Cytochrome P450 2B6 (Homo sapiens, UniProt P20813); assay: Reversible inhibition of CYP2B6 in human liver microsomes using bupropion as substrate pre-incubated for 30 mins followed by NADPH addition and measured after 10 mins by LC-MS/MS analysis; assay type: ADME, Microsome
T2 sequence (P20813 whole entry): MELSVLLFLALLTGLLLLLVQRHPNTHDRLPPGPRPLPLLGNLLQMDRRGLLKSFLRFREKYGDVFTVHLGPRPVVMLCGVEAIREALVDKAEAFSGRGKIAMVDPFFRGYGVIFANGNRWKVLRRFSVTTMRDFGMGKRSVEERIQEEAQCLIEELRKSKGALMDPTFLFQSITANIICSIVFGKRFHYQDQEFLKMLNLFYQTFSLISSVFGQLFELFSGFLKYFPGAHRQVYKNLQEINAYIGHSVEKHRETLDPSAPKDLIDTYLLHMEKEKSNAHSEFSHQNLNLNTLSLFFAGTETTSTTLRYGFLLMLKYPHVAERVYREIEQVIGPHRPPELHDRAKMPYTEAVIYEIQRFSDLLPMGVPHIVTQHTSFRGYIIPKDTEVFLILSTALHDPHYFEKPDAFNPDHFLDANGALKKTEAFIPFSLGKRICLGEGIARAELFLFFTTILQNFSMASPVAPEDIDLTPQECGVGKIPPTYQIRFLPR

[16] = Cardiotoxicity in Langendorff-perfused New Zealand White rabbit heart assessed as decrease in left ventricular contractility at 10 uM incubated for 45 mins by ECG analysis; assay type: toxicity, tissue-based, Oryctolagus cuniculus; set-up: scale not given: the % may be the effect or the level left; settings: 0.75 h
[17] = AUCinfinity in Beagle dog at 10 mg/kg,po measured at 0.083 to 24 hrs post administration by LC-MS/MS analysis; assay type: ADME, organism-based, Canis lupus familiaris; settings: in vivo, time 0.083-24 hrs
Cytochrome P450 2C19 = Cytochrome P450 2C19 (Homo sapiens, UniProt P33261); assay: Reversible inhibition of CYP2C19 in human liver microsomes using S-mephenytoin as substrate pre-incubated for 30 mins followed by NADPH addition and measured after 10 mins by LC-MS/MS analysis; assay type: ADME, Microsome
[18] = Clearance in CD-1 mouse at 2 mg/kg,iv measured at 0.083 to 24 hrs post administration by LC-MS/MS analysis; assay type: ADME, organism-based; settings: in vivo, time 0.083-24 hrs
[19] = Half life in Sprague-Dawley rat at 10 mg/kg,po measured at 0.083 to 24 hrs post administration by LC-MS/MS analysis; assay type: ADME, organism-based; settings: Sprague-Dawley, in vivo, time 0.083-24 hrs
[20] = Oral bioavailability in Beagle dog at 10 mg/kg measured at 0.083 to 24 hrs by LC-MS/MS analysis; assay type: ADME, organism-based, Canis lupus familiaris; settings: in vivo, time 0.083-24 hrs
[21] = Cmax in Beagle dog at 10 mg/kg,po measured at 0.083 to 24 hrs post administration by LC-MS/MS analysis; assay type: ADME, organism-based, Canis lupus familiaris; settings: in vivo, time 0.083-24 hrs

Cytochrome P450 2C19, sequence (P33261 whole entry): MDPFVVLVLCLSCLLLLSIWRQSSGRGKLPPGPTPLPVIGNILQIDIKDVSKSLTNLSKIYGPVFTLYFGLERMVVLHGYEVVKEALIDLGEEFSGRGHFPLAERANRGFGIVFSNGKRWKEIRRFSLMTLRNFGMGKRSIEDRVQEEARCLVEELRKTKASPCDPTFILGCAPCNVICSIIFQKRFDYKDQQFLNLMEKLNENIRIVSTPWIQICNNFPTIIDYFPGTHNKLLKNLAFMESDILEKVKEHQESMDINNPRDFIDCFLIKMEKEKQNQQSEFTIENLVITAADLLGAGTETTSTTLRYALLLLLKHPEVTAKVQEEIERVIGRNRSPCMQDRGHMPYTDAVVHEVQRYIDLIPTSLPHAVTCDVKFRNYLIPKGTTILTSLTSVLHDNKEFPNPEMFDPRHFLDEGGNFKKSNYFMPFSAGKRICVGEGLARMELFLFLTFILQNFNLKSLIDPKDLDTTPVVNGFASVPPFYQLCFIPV

Row | SMILES | fold change (FC) [1] | half-life [2] [h] | Cmax [4] [ng/mL] | fraction unbound at 6 h, 2 µM [5] | half-life [8] [h] | solubility kinetic at 24 h [9] [µM] | fraction unbound at 6 h, 2 µM [10] | bioavailability [11] [%] | Cmax [12] [ng/mL] | microsomal CLint at 0.3 µM [13] [µL/min/mg] | pEC50 (Hepatitis B virus) | pIC50 (Cytochrome P450 1A2) | Activity [14] [%] | pIC50 (Cytochrome P450 2B6) | Activity [16] | AUC(0-inf) [17] [ng·h/mL] | pIC50 (Cytochrome P450 2C19) | clearance [18] [mL/min/kg] | half-life [19] [h] | bioavailability [20] [%] | other results
1 | COCCCOc1cc2c(cc1OC)-c1cc(=O)c(C(=O)O)cn1[C@H](C(C)C)C2 | 0.6 | 1.6 | 1840 | 0.5 | 2 | 190 (≈ 76.3 µg/mL) | 0.44 | 96 | 1500 | 5 | 8.92 | < 4.60 | 20 | < 4.60 | 20% | 13000 | < 4.60 | 26 | 3.4 | 110 | AUC ([3]; iv, 2 mg/kg): 2362 ng·h/mL; bioavailability [6]: 28%; AUC(0-inf) [7]: 6720 ng·h/mL; Vdss(app) ([15]; iv, 2 mg/kg): 1.7 L/kg; Cmax [21]: 4030 ng/mL
2 | COCCCOc1cc2c(cc1Cl)-c1cc(=O)c(C(=O)O)cn1[C@H](C(C)C)CO2 | < 0.1 | 1.7 | 702 | 0.2 | 1.2 | > 200 | 0.14 | 63 | 2060 | 5 | 7.92 | < 4.60 | 20 | < 4.60 | 20% | 10700 | < 4.60 | 20 | 2.8 | 63 | AUC(0-inf) [3]: 3370 ng·h/mL; F ([6]; po, 10 mg/kg): 14%; AUC ([7]; po, 10 mg/kg): 10300 ng·h/mL; Vd [15]: 1 L/kg; Cmax [21]: 3130 ng/mL
3 | COCCCOc1cc2c(nc1OC)-c1cc(=O)c(C(=O)O)cn1[C@H](C(C)C)C2 | 7.5 | 2.8 | 1110 | 0.46 | 5.8 | > 200 | 0.5 | 99 | 2310 | 2 | 9.00 | < 4.60 | 20 | < 4.60 | Non-Toxic | 31500 | < 4.60 | 30 | 3.4 | 98 | AUC(0-inf) [3]: 6410 ng·h/mL; bioavailability [6]: 80%; AUC(0-inf) [7]: 14100 ng·h/mL; Vd [15]: 0.8 L/kg; Cmax [21]: 6740 ng/mL
